Read-outs that look alike come from different tables or passages of the source. One block for each molecule: values may come before it.
What was measured:
[1] = target: T1, ERCC1-XPF endonuclease (Homo sapiens, UniProt P07992+Q92889); experiment: fluorescence based DNA incision assay with purified ERCC1-XPF; assay type: biochemical; details: purified enzyme, forked fluorescent DNA substrate
T1 sequence (Q92889 1-916): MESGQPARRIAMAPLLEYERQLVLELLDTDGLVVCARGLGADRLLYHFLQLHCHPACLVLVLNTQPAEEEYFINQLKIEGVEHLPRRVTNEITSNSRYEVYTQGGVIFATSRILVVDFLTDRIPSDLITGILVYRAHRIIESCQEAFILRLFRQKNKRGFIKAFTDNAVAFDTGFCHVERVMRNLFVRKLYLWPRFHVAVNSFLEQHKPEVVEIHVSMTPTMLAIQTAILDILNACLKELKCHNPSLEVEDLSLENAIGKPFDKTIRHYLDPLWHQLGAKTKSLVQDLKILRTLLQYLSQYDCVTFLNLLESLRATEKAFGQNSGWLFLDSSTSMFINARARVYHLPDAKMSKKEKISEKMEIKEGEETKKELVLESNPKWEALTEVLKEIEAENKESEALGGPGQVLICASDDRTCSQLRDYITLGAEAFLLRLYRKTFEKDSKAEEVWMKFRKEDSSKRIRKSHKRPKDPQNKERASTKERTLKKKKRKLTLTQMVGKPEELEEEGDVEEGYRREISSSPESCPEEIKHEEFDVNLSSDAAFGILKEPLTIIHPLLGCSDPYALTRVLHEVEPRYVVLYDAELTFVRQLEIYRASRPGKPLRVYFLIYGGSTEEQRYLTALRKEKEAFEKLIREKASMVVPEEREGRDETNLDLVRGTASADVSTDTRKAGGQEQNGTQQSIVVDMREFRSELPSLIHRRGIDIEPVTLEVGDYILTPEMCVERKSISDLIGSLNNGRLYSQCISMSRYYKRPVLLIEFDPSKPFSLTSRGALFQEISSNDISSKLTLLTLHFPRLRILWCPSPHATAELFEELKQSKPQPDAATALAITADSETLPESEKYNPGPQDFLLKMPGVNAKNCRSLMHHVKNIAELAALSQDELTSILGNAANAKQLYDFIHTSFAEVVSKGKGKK
T1 sequence (P07992 1-297): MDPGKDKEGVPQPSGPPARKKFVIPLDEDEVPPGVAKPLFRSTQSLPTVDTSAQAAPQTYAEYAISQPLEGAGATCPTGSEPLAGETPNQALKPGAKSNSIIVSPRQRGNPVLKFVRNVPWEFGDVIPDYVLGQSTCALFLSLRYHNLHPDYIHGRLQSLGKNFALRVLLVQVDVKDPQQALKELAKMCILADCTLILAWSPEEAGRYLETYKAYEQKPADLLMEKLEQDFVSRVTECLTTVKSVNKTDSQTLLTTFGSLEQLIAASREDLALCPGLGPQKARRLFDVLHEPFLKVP
Source text: Described herein is a robust fluorescence based incision assay which was used to initially screen a diverse drug library (˜2,000 compounds) in order to identify inhibitors of the ERCC1-XPF endonuclease. From the initial screen, five (5) small molecule Hits were identified that inhibited ERCC1-XPF nuclease activity with micromolar to nanomolar potency.
(§1) For at least one reason, the lead compound was selected based on having nanomolar potency in the fluorescence assay (FIG. 2) and having the best response in enhancing cisplatin efficacy in cell culture models. Titration of lead compound in the ERCC1-XPF fluorescence assay yields an IC50 value of 400-500 nM (FIG. 2).
(§2) The synthesized compounds were tested in the in vitro fluorescence incision assay and radiolabeled DNA incision assay for potency and selectivity against ERCC1-XPF. These assays are based on forked synthetic DNA substrates and purified enzyme. The fluorescent DNA substrate is designed such that a fluorophore (Fl) is incorporated into the top DNA strand while a quencher (Q) molecule is incorporated in the bottom DNA strand and in close proximity to the Fl (FIG. 5).
When the DNA substrate is annealed, the Q quenches the fluorescent signal and results in low background fluorescence. […]

[2] = test system: cell culture; experiment: enhancement of cisplatin efficacy in cell culture; assay type: cell-based
Source text: The Tosyl adduct is necessary for compound 1's ability to enhance cisplatin activity and inhibit DNA repair. Without this functionality, no activity in cell culture was observed. Derivatives synthesized in Pathways B and C, take further advantage of the Tosyl functional group, including the sulfonate linkage itself. Pathway B focuses on varying the substitution on the toluene ring. By substitution of the methyl substituent with hydrogen (3a), as well as a halogen (3c) or a propyl group (3d), steric tolerance is adjusted at this position. Alternatively, addition of a heteroatom within the aromatic ring, whether it is an oxygen (3e) or a nitrogen (3f), has little effect upon the steric environment but alters the electronic nature of this key substituent. Removal of the aromatic ring and replacement with an alkene (3b) encompasses both the steric and electronic features at this position. Pathway C exemplifies compounds with differing linkers to the tosyl moiety, namely substitution of the sulfonate as a thioether (4a), sulfoxide (4b), ester (4c), and ether (4d) or amine (4e).

[3] = test system: 2008/C13*5.25 (resistant) ovarian cancer cell line; experiment: colony survival after ERCC1-XPF siRNA and cisplatin treatment; assay type: cell-based; details: control siRNA; 2008/C13*5.25 vs 2008
Source text: FIG. 1: Colony survival in matched ovarian cancer cell lines. 2008 (sensitive, squares) and 2008/C13*5.25 (resistant, circles) ovarian cancer cell lines were transfected with control or ERCC1-XPF siRNA and subjected to cisplatin treatment. IC50 values are indicated.
In order to assess whether ERCC1-XPF influences cisplatin resistance in ovarian cancer cell lines, a matched set of parental sensitive (2008s) and daughter resistant cell lines (2008/C13*5.25) were obtained. These are well characterized cell lines for assessing cisplatin resistance and effects in ovarian cancer.
Following greater than 90% ERCC1-XPF knockdown (data not shown), the resistant daughter cell line has a nearly 5-fold change in cisplatin sensitivity, making the cells as sensitive as the parental sensitive cell line (compare open circles with filled squares).

[4] = test system: cisplatin resistant ovarian cancer cell line (2008/C13*5.25); experiment: colony survival with cisplatin IC50 concentration, lead compound titrated (Combination Factor); assay type: cell-based; details: 2008/C13*5.25, colony survival
Procedure: (§3) Cells were treated with the cisplatin IC50 concentration while the lead compound was titrated into the experiment, and colony survival assessed. The Combination Factor is the concentration of lead compound that is required to enhance cisplatin IC50 values by 2-fold.

[5] = test system: lung cancer cell line (H460); experiment: as above; assay type: cell-based
Procedure: as §3

[6] = target: T2, ERCC1-XPF (Homo sapiens, UniProt P07992+Q92889); experiment: radiolabeled DNA incision assay (radiometric inhibition assay); assay type: biochemical; details: read-out: 50% inhibition in radiometric inhibition assay
T2 sequence (Q92889 1-916): T1 sequence (Q92889 1-916)
T2 sequence (P07992 1-297): T1 sequence (P07992 1-297)
Procedure: as §1, §2

IC50 ([1]; read-out: 50% fluorescent inhibition in the fluorescence incision assay): 3.2 to 3.6 µM
SMILES: COc1cc(S(=O)(=O)O)cc2cc(S(=O)(=O)O)cc(N)c12 [boxed portion of the molecule, reference compound]
effect in cell culture ([2]; data not shown): no effect

SMILES: N.N.[Cl][Pt][Cl] [cisplatin]
fold resistance to cisplatin, comparing IC50 values to the parental sensitive cell line [3]: ~4 fold

IC50 ([1]; read-out: IC50 (50% inhibition) in ERCC1-XPF fluorescence assay): 0.4 to 0.5 µM
IC50 ([2]; with cisplatin, cell line not stated, read-out: enhancing cisplatin efficacy in cell culture (IC50)): 4 µM
IC50 [6]: 0.4 to 0.5 µM
SMILES: Cc1ccc(S(=O)(=O)Oc2cc(S(=O)(=O)O)cc3cc(S(=O)(=O)O)cc(N)c23)cc1 [compound 1]
Combination Factor: concentration of lead compound required to enhance cisplatin IC50 values by 2-fold [4]: low micromolar range
Combination Factor: concentration of lead compound required to enhance cisplatin IC50 values by 2-fold [5]: 7 to 8 µM

— patent publication US9821008B2, “Inhibitors of ERCC1-XPF and methods of using the same” (The University of Toledo, priority 2013, dated 2017)
